Experimental data taken from patent US7592023B2, “Transplant media” (Trophic Solutions LLC, priority 2000, dated 2009).

Experiments:
[1] = test system: MDCK cells; assay: cytoskeletal structure (actin and tubulin antibodies, confocal fluorescence microscopy) after cold storage, MDCK cells; format: cell-based; settings: three days at cold temperatures
From the text: (§1) This Example describes the effect UW solution supplemented with BNP-1 on cytoskeletal structure of kidney cells. Briefly, either MDCK cells or primary kidney cell cultures were stored for three days at cold temperatures in either UW solution, UW solution supplemented with BNP-1, or DMEM. The cells were then labeled with actin and tubulin antibodies and analyzed by confocal fluorescence microscopy. […] In these primary cells, the actin and tubulin filaments maintained a coarse clumpy pattern with considerable cortical condensation near the plasma membrane and only a limited amount of fine fibrillar structure that would be considered more normal.

[2] = test system: primary kidney cell cultures; assay: cytoskeletal structure (actin and tubulin antibodies, confocal fluorescence microscopy) after cold storage, primary kidney cell cultures; format: cell-based; settings: three days at cold temperatures
From the text: as §1

[3] = test system: panel of organisms in stationary growth phase; settings: cited from earlier work
[4] = test system: bacteria, fungi, and enveloped viruses; settings: cited from earlier work

BNP-1: bovine defensin peptide, SEQ ID NO: 37, rlcrivvirvcr; synthesized by Multiple Peptide Systems (RLCRIVVIRVCR; listed as Bos taurus)
actin and tubulin after storage [1]: better maintenance of actin and tubulin | actin and tubulin after storage [2]: the tubulin and actin were better stained and more persistent

HNP-1: defensin isolated from human PMN's, acycripaciagerrygtciyqgrlwafcc
antimicrobial properties, rank among defensins tested [3]: most potent antimicrobial properties

rabbit NP-1: rabbit neutrophil defensin, vvcacrralclprerragfcrirgrihplccrr (VVCACRRALCLPRERRAGFCRIRGRIHPLCCRR; listed as Oryctolagus cuniculus)
antimicrobial properties, rank among defensins tested [3]: most potent antimicrobial properties

GPNP: guinea pig defensin, rrcicttrtcrfpyrrlgtcifqnrvytfcc (RRCICTTRTCRFPYRRLGTCIFQNRVYTFCC; Guinea pig cytomegalovirus)
spectrum of antimicrobial activity [4]: broad spectrum antimicrobial properties verified
